Test results from US20070259327A1, “Cryopreservation medium and cryopreservation method for tissues and cells” (BioVerde. Inc., priority 2006, published 2007).

What was measured:
Type in all cases: cell-based, pigs
Islets [1] = test: Functionality of post-cryopreservation islets (stimulation index, insulin secretion high/low glucose); details: ratio of insulin secretion high vs low glucose medium
Experimental: Islets were isolated from over two years old pigs (n=3). After overnight culture, a known number of islets were incubated for 2 hours in culture medium supplemented with polyphenol (epigallocatechin-gallate (EGCg) with more than 98% purity) at concentrations of 0 (control), 30, 60, 120 ug/ml. Islets were suspended in the same volume of cryopreservation solution containing 12% hydroxyethyl starch (HES) and 10% dimethyl sulfoxide (DMSO) with 8% […] (FBS), and then cryopreserved using a program freezing system^3. After 4 weeks storage in liquid nitrogen, islets were rapidly thawed in a hot water bath. We assessed the results on recovery rate (islet yield after thawing/islet yield before freezing) following cryopreservation and after 48 hours of postcryopreservation tissue culture, viability and functionality. […] The stimulation index represents a ratio of insulin secretion between high-concentration glucose culture medium and low-concentration glucose culture medium.

Islets [2] = test: Islet recovery rate after cryopreservation with polyphenol pre-incubation; details: for islet recovery rate following cryopreservation: 2 hours incubation before freezing, 4 weeks in liquid nitrogen; for islet recovery rate after 48 hours of postcryopreservation tissue culture: 48 hours culture after thawing
Experimental: (§1) Islets were isolated from over two years old pigs (n=3). After overnight culture, a known number of islets were incubated for 2 hours in culture medium supplemented with polyphenol (epigallocatechin-gallate (EGCg) with more than 98% purity) at concentrations of 0 (control), 30, 60, 120 ug/ml. Islets were suspended in the same volume of cryopreservation solution containing 12% hydroxyethyl starch (HES) and 10% dimethyl sulfoxide (DMSO) with 8% […] (FBS), and then cryopreserved using a program freezing system^3. After 4 weeks storage in liquid nitrogen, islets were rapidly thawed in a hot water bath. We assessed the results on recovery rate (islet yield after thawing/islet yield before freezing) following cryopreservation and after 48 hours of postcryopreservation tissue culture, viability and functionality.

Islets [3] = test: Viability of post-cryopreservation islets assessed using AO/PI; details: for viability assessed using AO/PI: post-cryopreservation
Experimental: as §1

SMILES: O=C(O[C@@H]1Cc2c(O)cc(O)cc2O[C@@H]1c1cc(O)c(O)c(O)c1)c1cc(O)c(O)c(O)c1 [polyphenol, epigallocatechin-gallate]
- functionality indicated by stimulation index (Islets [1]; 30 ug/ml polyphenol): 1.4±0.2
- functionality indicated by stimulation index (Islets [1]; 60 ug/ml polyphenol): 1.4±0.3
- functionality indicated by stimulation index (Islets [1]; 120 ug/ml polyphenol): 0.9±0.3
- islet recovery rate following cryopreservation (Islets [2]; 30 ug/ml polyphenol): 66.5±3.3%
- islet recovery rate after 48 hours of postcryopreservation tissue culture (Islets [2]; 30 ug/ml polyphenol): 45.3±0.3%
- islet recovery rate following cryopreservation (Islets [2]; 60 ug/ml polyphenol): 76.9±5.2%
- islet recovery rate after 48 hours of postcryopreservation tissue culture (Islets [2]; 60 ug/ml polyphenol): 68.0±3.0%
- islet recovery rate following cryopreservation (Islets [2]; 120 ug/ml polyphenol): 74.5±2.9%
- islet recovery rate after 48 hours of postcryopreservation tissue culture (Islets [2]; 120 ug/ml polyphenol): 54.6±3.3%
- viability assessed using AO/PI (Islets [3]; 30 ug/ml polyphenol): 83.1±1.2
- viability assessed using AO/PI (Islets [3]; 60 ug/ml polyphenol): 85.9±2.5
- viability assessed using AO/PI (Islets [3]; 120 ug/ml polyphenol): 84.4±1.0
- viability following cryopreservation, compared with control (Islets [3]; polyphenol group vs control group, p<0.01): significantly higher than the control group
